One assay concerns the target Protein ENL (Homo sapiens, UniProt Q03111). Briefly: Affinity On-target Cellular interaction (NanoBRET assay (HEK293T cells)) EUB0000283b MLLT1. Set-up: mode of action Inhibitor, recommended concentration 1 uM. For orientation: In BRET a luciferase serves as donor, and the signal depends on an acceptor being close.
The target in assay [1] is Dual specificity protein kinase CLK1 (Homo sapiens, UniProt P49759). Briefly: Affinity On-target Cellular interaction (NanoBRET assay (HEK293T cells)) EUB0000724a CLK1. Set-up: mode of action Inhibitor, recommended concentration 1 uM.
A short description of assay [2]: Affinity On-target Cellular interaction (Cell-based assay) EUB0000315b MGAT2.
Assay [3] concerns the target Mitogen-activated protein kinase 1 (Homo sapiens, UniProt P28482).
The target in assay [4] is T1, Protein AF-9 (Homo sapiens, UniProt P42568).
The target in assay [5] is Cytochrome P450 11B2, mitochondrial (Homo sapiens, UniProt P19099). Briefly: Affinity On-target Cellular interaction (HTRF-based assay (V79 cell lines, CisBio)) EUB0000733a CYP11B2. More on the design: mode of action Negative control for MSD-CYP11B2, recommended concentration 100 nM.
Assay [6] addresses T2, NADH dehydrogenase [ubiquinone] iron-sulfur protein 2, mitochondrial (Homo sapiens, UniProt O75306). Briefly: Affinity On-target Cellular interaction (Cellular activity assay (measurement of ATP levels in presence of complex II substrate succinate in H1299 cells)) EUB0000748a NDUFS2. It counts as cell-based. More on the design: mode of action Negative control for BAY-179, recommended concentration 1 uM.

The target of assay [7] is Protein farnesyltransferase subunit beta (Homo sapiens, UniProt P49356). Briefly: Affinity On-target Cellular interaction (Western Blot (inhibition of Ras in NIH 3T3 H-Ras cells)) EUB0000289c FNTB. In kind it is cell-based. Set-up: mode of action Inhibitor, recommended concentration 1 uM. In general terms: Immunoblotting shows a protein as a band on a membrane.
Assay [8] concerns the target BDNF/NT-3 growth factors receptor (Homo sapiens, UniProt Q16620). Briefly: Affinity On-target Cellular interaction (NanoBRET assay (HEK293T cells)) EUB0000156b NTRK2. More on the design: mode of action Negative control for DDR-TRK-1 (D2202-1), recommended concentration 1 uM.
For assay [9], the target named is Discoidin domain-containing receptor 2 (Homo sapiens, UniProt Q16832). Briefly: Affinity On-target Cellular interaction (NanoBRET assay (HEK293T cells)) EUB0000156b DDR2. Set-up: mode of action Negative control for DDR-TRK-1 (D2202-1), recommended concentration 1 uM.
Assay [10] addresses Epithelial discoidin domain-containing receptor 1 (Homo sapiens, UniProt Q08345). Briefly: Affinity On-target Cellular interaction (NanoBRET assay (HEK293T cells)) EUB0000156b DDR1. Set-up: mode of action Negative control for DDR-TRK-1 (D2202-1), recommended concentration 1 uM.
Assay [11] concerns the target High affinity nerve growth factor receptor (Homo sapiens, UniProt P04629). Briefly: Affinity On-target Cellular interaction (NanoBRET assay (HEK293T cells)) EUB0000156b NTRK1. Set-up: mode of action Negative control for DDR-TRK-1 (D2202-1), recommended concentration 1 uM.
The target of assay [12] is T2, NADH dehydrogenase [ubiquinone] iron-sulfur protein 2, mitochondrial. Briefly: Affinity On-target Cellular interaction (Cellular activity assay (measurement of ATP levels in presence of complex II substrate succinate in H1299 cells)) EUB0000752a NDUFS2. In kind it is cell-based. More on the design: mode of action Inhibitor, recommended concentration 1 uM.
Assay [13] has as its target T1, Protein AF-9. Briefly: Affinity On-target Cellular interaction (NanoBRET assay (HEK293T cells)) EUB0000732a MLLT3. Set-up: mode of action Negative control for PFI-6, recommended concentration 1 uM.
The nature of assay [14]: Affinity On-target Cellular interaction (Measles Virus Inhibition Assay) EUB0000745a DHODH.

Here are results for 12 compounds from ChEMBL document CHEMBL5210121, “Affinity On-target Cellular Literature for EUbOPEN Chemogenomics Library wave 3” (2023).

The structures appear in SMILES notation.

T2 sequence (O75306 whole entry): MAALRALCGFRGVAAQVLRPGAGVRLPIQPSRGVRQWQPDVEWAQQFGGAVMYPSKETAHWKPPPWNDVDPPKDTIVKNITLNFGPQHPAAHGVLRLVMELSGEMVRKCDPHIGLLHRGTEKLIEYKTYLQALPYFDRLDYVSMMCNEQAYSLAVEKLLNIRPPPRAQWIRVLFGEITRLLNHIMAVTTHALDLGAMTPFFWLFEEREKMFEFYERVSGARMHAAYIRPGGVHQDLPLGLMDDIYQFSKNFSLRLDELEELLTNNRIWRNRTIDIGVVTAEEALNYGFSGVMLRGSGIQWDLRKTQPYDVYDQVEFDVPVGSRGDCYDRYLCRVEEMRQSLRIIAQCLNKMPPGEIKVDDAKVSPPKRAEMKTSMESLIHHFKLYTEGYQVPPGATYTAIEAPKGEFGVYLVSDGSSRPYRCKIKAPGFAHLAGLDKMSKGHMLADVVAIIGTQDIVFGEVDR
T1 sequence (P42568 whole entry): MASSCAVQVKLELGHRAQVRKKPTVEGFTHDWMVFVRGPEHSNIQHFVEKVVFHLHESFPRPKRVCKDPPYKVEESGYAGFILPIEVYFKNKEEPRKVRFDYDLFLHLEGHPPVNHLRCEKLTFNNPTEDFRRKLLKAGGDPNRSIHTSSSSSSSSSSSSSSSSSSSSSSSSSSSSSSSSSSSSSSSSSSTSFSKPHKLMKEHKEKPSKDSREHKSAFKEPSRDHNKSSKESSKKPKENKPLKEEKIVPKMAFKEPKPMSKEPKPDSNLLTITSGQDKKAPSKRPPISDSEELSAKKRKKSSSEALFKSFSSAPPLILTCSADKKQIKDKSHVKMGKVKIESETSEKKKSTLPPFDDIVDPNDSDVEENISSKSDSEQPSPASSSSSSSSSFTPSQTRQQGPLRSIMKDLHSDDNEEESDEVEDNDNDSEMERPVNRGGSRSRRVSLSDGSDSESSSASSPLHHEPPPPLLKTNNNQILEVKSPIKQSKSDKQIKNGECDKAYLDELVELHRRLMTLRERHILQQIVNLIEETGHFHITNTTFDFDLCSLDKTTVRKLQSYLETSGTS
Protein farnesyltransferase subunit beta, sequence (P49356 whole entry): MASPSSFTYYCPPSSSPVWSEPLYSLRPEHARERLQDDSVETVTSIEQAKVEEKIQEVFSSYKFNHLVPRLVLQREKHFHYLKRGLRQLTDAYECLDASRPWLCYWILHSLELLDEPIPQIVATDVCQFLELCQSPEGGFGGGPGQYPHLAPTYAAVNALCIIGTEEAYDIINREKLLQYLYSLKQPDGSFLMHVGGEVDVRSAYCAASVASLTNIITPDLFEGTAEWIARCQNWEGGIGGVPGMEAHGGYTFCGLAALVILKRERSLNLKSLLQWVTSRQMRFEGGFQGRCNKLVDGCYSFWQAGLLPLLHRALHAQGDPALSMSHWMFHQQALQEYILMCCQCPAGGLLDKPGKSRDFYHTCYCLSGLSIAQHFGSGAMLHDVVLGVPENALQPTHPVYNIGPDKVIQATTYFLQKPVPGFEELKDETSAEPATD
Dual specificity protein kinase CLK1, sequence (P49759 whole entry): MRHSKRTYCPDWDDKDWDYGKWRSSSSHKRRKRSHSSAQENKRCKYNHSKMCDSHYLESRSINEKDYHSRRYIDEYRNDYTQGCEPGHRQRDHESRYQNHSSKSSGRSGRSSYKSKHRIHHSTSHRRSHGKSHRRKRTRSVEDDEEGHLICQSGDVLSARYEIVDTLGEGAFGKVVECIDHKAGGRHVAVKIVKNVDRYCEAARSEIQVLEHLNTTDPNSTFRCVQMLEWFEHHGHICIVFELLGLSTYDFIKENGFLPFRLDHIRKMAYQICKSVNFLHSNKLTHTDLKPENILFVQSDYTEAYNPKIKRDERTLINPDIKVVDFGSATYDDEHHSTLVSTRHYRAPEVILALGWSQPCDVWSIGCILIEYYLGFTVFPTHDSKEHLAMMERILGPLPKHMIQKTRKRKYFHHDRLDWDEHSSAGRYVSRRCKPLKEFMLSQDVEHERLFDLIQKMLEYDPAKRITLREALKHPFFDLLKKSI
BDNF/NT-3 growth factors receptor, sequence (Q16620 whole entry, the tested form may be a part): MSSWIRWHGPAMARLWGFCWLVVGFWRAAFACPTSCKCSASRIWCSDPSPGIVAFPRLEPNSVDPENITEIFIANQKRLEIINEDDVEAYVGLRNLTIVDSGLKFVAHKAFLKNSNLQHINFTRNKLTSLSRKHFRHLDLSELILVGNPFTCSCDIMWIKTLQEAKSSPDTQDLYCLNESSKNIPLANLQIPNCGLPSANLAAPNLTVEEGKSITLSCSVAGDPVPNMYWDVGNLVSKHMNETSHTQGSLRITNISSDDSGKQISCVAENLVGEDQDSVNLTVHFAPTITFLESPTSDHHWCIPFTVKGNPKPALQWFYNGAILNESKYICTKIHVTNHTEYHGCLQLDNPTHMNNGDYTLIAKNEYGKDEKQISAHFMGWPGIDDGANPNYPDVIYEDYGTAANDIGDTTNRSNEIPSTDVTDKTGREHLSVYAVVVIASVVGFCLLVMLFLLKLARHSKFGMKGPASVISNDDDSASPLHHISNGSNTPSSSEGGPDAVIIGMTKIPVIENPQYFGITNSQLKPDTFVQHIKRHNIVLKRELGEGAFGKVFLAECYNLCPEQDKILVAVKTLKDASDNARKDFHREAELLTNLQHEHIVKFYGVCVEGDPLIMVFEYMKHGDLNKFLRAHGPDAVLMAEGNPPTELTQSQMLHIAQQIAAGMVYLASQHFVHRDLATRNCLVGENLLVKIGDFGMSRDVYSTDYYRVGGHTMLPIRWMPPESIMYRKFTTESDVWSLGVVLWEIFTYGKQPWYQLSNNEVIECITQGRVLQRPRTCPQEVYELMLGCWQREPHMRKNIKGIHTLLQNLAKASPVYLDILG
Epithelial discoidin domain-containing receptor 1, sequence (Q08345 whole entry, the tested form may be a part): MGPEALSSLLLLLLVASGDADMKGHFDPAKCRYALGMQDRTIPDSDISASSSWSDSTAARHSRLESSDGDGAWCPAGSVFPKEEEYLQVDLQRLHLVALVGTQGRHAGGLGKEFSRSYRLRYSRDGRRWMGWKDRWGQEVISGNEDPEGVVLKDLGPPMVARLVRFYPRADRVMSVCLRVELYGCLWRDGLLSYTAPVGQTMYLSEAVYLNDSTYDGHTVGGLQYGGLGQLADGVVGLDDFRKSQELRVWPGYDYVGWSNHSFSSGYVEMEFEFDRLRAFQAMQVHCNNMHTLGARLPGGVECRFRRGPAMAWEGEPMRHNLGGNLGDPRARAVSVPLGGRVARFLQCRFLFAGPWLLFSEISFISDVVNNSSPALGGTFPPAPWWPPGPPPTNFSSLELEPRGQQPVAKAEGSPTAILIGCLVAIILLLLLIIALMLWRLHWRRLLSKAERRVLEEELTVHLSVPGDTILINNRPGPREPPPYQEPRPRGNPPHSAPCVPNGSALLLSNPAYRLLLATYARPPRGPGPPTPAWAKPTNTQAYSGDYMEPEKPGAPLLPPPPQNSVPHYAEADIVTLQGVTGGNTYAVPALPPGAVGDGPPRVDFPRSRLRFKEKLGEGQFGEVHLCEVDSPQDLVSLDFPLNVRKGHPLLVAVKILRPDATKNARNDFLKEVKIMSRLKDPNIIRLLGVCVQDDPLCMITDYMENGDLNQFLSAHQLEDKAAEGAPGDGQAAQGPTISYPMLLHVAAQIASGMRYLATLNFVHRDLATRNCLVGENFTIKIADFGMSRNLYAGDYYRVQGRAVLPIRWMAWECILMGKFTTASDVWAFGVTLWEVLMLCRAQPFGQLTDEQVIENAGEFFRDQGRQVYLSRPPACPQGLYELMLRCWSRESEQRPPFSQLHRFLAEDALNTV
Cytochrome P450 11B2, mitochondrial, sequence (P19099 whole entry): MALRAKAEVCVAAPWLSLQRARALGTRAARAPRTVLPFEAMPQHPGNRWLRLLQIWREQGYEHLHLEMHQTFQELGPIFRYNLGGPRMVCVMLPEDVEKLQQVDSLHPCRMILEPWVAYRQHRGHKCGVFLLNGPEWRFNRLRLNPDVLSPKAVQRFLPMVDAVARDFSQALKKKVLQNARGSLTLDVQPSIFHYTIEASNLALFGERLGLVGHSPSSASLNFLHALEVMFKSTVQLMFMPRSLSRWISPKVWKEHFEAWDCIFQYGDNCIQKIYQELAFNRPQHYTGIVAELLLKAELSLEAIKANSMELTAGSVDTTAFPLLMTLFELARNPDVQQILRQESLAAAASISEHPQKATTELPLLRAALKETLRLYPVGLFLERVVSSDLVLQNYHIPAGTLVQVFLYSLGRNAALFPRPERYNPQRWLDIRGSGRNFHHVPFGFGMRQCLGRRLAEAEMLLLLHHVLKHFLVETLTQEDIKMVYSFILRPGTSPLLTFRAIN
Discoidin domain-containing receptor 2, sequence (Q16832 whole entry, the tested form may be a part): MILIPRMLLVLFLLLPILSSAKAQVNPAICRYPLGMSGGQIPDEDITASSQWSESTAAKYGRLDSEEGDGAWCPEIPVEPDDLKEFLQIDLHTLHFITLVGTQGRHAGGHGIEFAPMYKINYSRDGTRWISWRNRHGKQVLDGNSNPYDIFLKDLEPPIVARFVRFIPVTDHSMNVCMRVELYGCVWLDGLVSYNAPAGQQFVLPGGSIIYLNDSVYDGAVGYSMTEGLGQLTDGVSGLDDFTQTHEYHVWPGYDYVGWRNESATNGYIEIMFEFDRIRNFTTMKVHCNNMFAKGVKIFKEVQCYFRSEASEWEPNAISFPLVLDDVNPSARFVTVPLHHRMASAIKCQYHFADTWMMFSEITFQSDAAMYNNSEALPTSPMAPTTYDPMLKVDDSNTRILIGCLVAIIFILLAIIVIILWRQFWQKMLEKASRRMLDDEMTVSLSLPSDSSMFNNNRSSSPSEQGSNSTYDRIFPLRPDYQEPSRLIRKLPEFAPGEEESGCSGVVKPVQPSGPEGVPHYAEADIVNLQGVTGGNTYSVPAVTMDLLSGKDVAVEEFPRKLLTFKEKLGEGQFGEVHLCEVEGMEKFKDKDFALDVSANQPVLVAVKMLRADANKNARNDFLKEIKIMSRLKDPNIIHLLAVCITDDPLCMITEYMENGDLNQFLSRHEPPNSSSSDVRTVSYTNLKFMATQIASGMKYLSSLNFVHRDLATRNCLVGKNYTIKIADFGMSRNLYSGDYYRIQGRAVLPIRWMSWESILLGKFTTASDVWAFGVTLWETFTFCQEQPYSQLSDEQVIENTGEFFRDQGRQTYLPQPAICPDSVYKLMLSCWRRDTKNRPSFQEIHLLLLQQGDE

As a reminder, the IC50 is the concentration at which inhibition is half-maximal. `C[C@H]1CCCN1Cc1nc2cc(NC(=O)c3ccc4cnccc4c3)ccc2[nH]1` gave an IC50 on Protein ENL of 500 nM.
Consider `COc1cc(Nc2nccc(-c3cnn4nc(OC)ccc34)n2)cc(C(F)(F)F)c1`, for which the IC50 in [1] came to 165 nM.
Regarding `Cn1nc(C(F)(F)F)cc1-c1cnc(N2CCc3cc(S(=O)(=O)Nc4c(F)cc(Cl)cc4F)cc(N4CCCC4=O)c32)nc1` [TP-020], inhibition in [2] was half-maximal at 160 nM (IC50).
Take `C[C@@H](NC(=O)Nc1cc2[nH]ncc2c(CO)n1)c1ccccc1` [ERKi]: in assay [3], the IC50 turned out to be 850 nM.
`CN(C)C(=O)c1ccc(-c2cc(C(=O)N[C@@H]3CCc4ccccc43)no2)cc1O` had an IC50 against Protein AF-9 [4] of 760 nM.
With `FC(F)(F)c1ccc2c(c1)nc(-c1cccnc1)n2C1CC1` [MSD-CYP11B2-Negative-control], the IC50 in [5] is above 10000 nM.
In the case of `Cn1c(-c2csc(C3CCN(CC4=NC5N=CC=CC5N4)CC3)n2)nc2ccccc21` (stereo not given) [BAY-070], the IC50 in assay [6] was above 30000 nM.
One may read the EC50 as the concentration needed to bring the measured effect to its halfway point. Low readings indicate a more potent agent, high ones a less potent agent. In [7], `Cn1cncc1[C@](O)(COc1ccc(C#N)cc1-c1ccc(OC(F)(F)F)cc1)c1ccc(C#N)cc1` [ABT-100] had an EC50 of 0.73 nM.
As to `CN1CCN(Cc2cc(NC(=O)c3ccc4c(c3)CN(c3ccccc3)CC4)cc(C(F)(F)F)c2)CC1`, the IC50 was 6800 nM in [8], 8720 nM in assay [9], 26600 nM in [10] and 19300 nM in [11].
Take `c1ccc2oc(-c3csc(C4CCN(Cc5nc6ncccc6[nH]5)CC4)n3)cc2c1`: the IC50 in [12] was found to be 79 nM.
`CN(C)C(=O)c1ccc(-c2cc(C(=O)N(C)C3CCCC3)no2)cc1O` yielded an IC50 at Protein AF-9 [13] above 30000 nM.
Take `Cc1c(Oc2ccc(F)cc2)c(OC(C)C)nn1-c1ccc(C2CC2)cn1` [IPP/CNRS-A019]: the concentration for half-maximal inhibition (IC50) in assay [14] stood at 1200 nM.
